SMILES strings stand for the structures.

Chain of USP1 (construct USP1 (I-785, GG670, 671AA)/UAF1 (I-677)-Flag) (O94782 whole entry G670A/G671A): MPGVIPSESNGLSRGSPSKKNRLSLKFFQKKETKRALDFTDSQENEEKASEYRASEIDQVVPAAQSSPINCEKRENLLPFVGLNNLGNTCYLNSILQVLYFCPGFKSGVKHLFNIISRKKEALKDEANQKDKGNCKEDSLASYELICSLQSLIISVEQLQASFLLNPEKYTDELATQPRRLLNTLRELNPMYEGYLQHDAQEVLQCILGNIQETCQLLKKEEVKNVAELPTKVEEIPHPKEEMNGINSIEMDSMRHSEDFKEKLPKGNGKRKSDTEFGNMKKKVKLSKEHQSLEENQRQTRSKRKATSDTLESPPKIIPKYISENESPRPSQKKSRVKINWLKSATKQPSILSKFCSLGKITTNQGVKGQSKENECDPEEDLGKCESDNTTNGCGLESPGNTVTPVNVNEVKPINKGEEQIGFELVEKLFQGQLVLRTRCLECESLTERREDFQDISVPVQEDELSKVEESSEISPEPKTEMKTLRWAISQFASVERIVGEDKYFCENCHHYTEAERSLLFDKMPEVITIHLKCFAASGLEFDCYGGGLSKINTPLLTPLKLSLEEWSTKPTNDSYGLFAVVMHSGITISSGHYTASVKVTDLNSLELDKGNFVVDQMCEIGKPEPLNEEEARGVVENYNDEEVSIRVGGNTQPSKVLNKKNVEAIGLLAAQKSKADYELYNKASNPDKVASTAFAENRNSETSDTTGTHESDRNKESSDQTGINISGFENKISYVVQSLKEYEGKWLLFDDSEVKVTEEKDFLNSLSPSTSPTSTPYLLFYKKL
Chain of USP1 (construct USP1 (I-785, GG670, 671AA)/UAF1 (I-677)-Flag) (Q8TAF3 whole entry partner): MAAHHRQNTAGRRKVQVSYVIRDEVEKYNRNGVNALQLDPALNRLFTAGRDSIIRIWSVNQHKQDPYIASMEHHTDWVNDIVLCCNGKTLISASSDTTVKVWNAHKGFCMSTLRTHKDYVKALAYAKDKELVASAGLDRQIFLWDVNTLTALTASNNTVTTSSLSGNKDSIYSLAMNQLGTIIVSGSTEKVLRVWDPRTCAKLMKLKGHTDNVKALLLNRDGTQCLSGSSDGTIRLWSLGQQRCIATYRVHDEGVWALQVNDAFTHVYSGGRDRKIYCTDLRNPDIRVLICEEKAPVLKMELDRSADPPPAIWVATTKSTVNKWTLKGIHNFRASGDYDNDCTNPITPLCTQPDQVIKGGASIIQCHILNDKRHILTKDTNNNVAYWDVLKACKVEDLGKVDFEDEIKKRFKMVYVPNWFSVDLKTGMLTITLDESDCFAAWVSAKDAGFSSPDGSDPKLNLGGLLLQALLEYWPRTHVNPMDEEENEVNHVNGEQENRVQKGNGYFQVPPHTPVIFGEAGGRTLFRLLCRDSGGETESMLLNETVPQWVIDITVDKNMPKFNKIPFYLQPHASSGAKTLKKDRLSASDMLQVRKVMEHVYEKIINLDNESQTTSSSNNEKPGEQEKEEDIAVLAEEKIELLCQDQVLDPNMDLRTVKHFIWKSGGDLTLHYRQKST

The assay addresses USP1 (construct USP1 (I-785, GG670, 671AA)/UAF1 (I-677)-Flag) (Homo sapiens (Human), UniProt O94782, G670A/G671A). In words: Ubiquitin-Rhodamine 110 assay for USP1 activity. Format: biochemical. The following applies: USP1/UAF1 25 pM, Ub-Rh110 25 nM, 30 min preincubation. The gist of the method: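 Two formats with the USP1/UAF1 complex and 25 nM ubiquitin-rhodamine 110 in pH 8.0 Tris buffer with calcium, glutathione and detergent. Single-point screening used 10 µM, 100 pM enzyme and 45 min. Inhibition was set against no-enzyme and DMSO wells.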
Regarding `CC(C)c1ccccc1-c1ncc2c(n1)n(Cc1ccc(N(C)C(=O)NC3CC3)cc1)c(=O)n2C` [Compound I-486, 3-cyclopropyl-1-(4-((2-(2-isopropylphenyl)-7-methyl-8-oxo-7,8-dihydro-9H-purin-9-yl)methyl)phenyl)-1-methylurea], the half-inhibitory concentration (IC50) lay in the range of 200 to 2000 nM.

`CC(C)c1ccccc1-c1ncc2[nH]c(=O)n(Cc3ccc(C(=O)NC4CCCC4)cc3)c2n1` [Compound I-358, N-cyclopentyl-4-((2-(2-isopropylphenyl)-8-oxo-7,8-dihydro-9H-purin-9-yl)methyl)benzamide] displayed an IC50 of 50 to 200 nM. `CC(=O)Nc1ccc(Cn2c(=O)[nH]c3cnc(-c4ccccc4C(C)C)nc32)cc1` [Compound I-218, N-(4-((2-(2-isopropylphenyl)-8-oxo-7,8-dihydro-9H-purin-9-yl)methyl)phenyl)acetamide] had a half-inhibitory concentration (IC50) of 200 to 2000 nM.

Molecule `Cc1ncccc1-c1ncc2c(n1)n(Cc1ccc(-c3nc(C(F)(F)F)cn3C)cc1)c(=O)n2C` [Compound I-62, 7-methyl-9-(4-(1-methyl-4-(trifluoromethyl)-1H-imidazol-2-yl)benzyl)-2-(2-methylpyridin-3-yl)-7,9-dihydro-8H-purin-8-one] displayed a half-maximal inhibitory concentration (IC50) of 200 to 2000 nM. `COCCOc1ccccc1-c1ncc2[nH]c(=O)n(Cc3ccc(-n4cccn4)cc3)c2n1` [Compound I-20, 9-(4-(1H-pyrazol-1-yl)benzyl)-2-(2-(2-methoxyethoxy)phenyl)-7,9-dihydro-8H-purin-8-one]: the IC50 lay in the range of 200 to 2000 nM. `CC(C)c1ccccc1-c1ncc2[nH]c(=O)n([C@@H](C)c3ccccc3)c2n1` [Compound I-156, (S)-2-(2-isopropylphenyl)-9-(1-phenylethyl)-7,9-dihydro-8H-purin-8-one] displayed an IC50 of over 2000 nM. Regarding `COc1ccnn1-c1ccc(Cn2c(=O)[nH]c3cnc(-c4ccccc4C(C)C)nc32)cc1` [Compound I-206, 2-(2-isopropylphenyl)-9-(4-(5-methoxy-1H-pyrazol-1-yl)benzyl)-7,9-dihydro-8H-purin-8-one], the IC50 was under 50 nM. `CC(C)c1ncccc1-c1ncc2[nH]c(=O)n(Cc3ccc(-n4ccc(C5CCN(C)CC5)n4)cc3)c2n1` [Compound I-442, 2-(2-isopropylpyridin-3-yl)-9-(4-(3-(1-methylpiperidin-4-yl)-1H-pyrazol-1-yl)benzyl)-7,9-dihydro-8H-purin-8-one] returned an IC50 of over 2000 nM. On to `Cc1cc(C(=O)N(C)c2ccc(Cn3c(=O)n(C)c4cnc(-c5ccccc5C(C)C)nc43)cc2)n[nH]1` [Compound I-470, N-(4-((2-(2-isopropylphenyl)-7-methyl-8-oxo-7,8-dihydro-9H-purin-9-yl)methyl)phenyl)-N,5-dimethyl-1H-pyrazole-3-carboxamide], for which the concentration for half-maximal inhibition (IC50) is over 2000 nM. `CC(C)c1ccccc1-c1ncc2[nH]c(=O)n(Cc3ccc(C(=O)N(C)C4CCCCC4)cc3)c2n1` [Compound I-364, N-cyclohexyl-4-((2-(2-isopropylphenyl)-8-oxo-7,8-dihydro-9H-purin-9-yl)methyl)-N-methylbenzamide]: the 50% inhibitory concentration (IC50) was under 50 nM.

`O=c1[nH]c2cnc(-c3cc(C(F)(F)F)ccc3C3CC3)nc2n1Cc1ccc(-n2cccn2)cc1` [Compound I-97, 9-(4-(1H-pyrazol-1-yl)benzyl)-2-(2-cyclopropyl-5-(trifluoromethyl)phenyl)-7,9-dihydro-8H-purin-8-one] registered an IC50 of 200 to 2000 nM. For `CC(C)c1ccccc1-c1ncc2[nH]c(=O)n(Cc3ccc(-c4cn[nH]n4)cc3)c2n1` [Compound I-523, 9-(4-(1H-1,2,3-triazol-5-yl)benzyl)-2-(2-isopropylphenyl)-7,9-dihydro-8H-purin-8-one], the concentration for half-maximal inhibition (IC50) was 50 to 200 nM. The same measure for `O=c1[nH]c2cnc(-c3cccnc3OCC(F)(F)F)nc2n1[C@@H]1CC[C@H]1c1ccc(-n2cccn2)cc1` [Compound I-24, 9-((1R,2S)-2-(4-(1H-pyrazol-1-yl)phenyl)cyclobutyl)-2-(2-(2,2,2-trifluoroethoxy)pyridin-3-yl)-7,9-dihydro-8H-purin-8-one]: 50 to 200 nM; for `CC(C)c1ccccc1-c1ncc2c(n1)n(Cc1ccc(-c3cccc4cnoc34)cc1)c(=O)n2C` [Compound I-267, 9-(4-(benzo[d]isoxazol-7-yl)benzyl)-2-(2-isopropylphenyl)-7-methyl-7,9-dihydro-8H-purin-8-one]: 200 to 2000 nM; for `CC(C)c1ncccc1-c1ncc2[nH]c(=O)n([C@@H](C)c3ccc(-n4cccn4)cc3)c2n1` [Compound I-13, (S)-9-(1-(4-(1H-pyrazol-1-yl)phenyl)ethyl)-2-(2-isopropylpyridin-3-yl)-7,9-dihydro-8H-purin-8-one]: 200 to 2000 nM. Regarding `CC(C)c1c(F)cccc1-c1ncc2[nH]c(=O)n(Cc3ccc(-n4ccnn4)cc3)c2n1` [Compound I-165, 9-(4-(1H-1,2,3-triazol-1-yl)benzyl)-2-(3-fluoro-2-isopropylphenyl)-7,9-dihydro-8H-purin-8-one], the IC50 is 50 to 200 nM. Turning to `Cc1cc(C(=O)Nc2ccc(Cn3c(=O)n(C)c4cnc(-c5ccccc5C(C)C)nc43)cc2)n(C)n1` [Compound I-469, N-(4-((2-(2-isopropylphenyl)-7-methyl-8-oxo-7,8-dihydro-9H-purin-9-yl)methyl)phenyl)-1,3-dimethyl-1H-pyrazole-5-carboxamide], the concentration for half-maximal inhibition (IC50) lay in the range of 200 to 2000 nM. As to `CC(C)c1ncccc1-c1ncc2[nH]c(=O)n([C@@H](C)c3ccc(-c4nc(C(F)(F)F)cn4C)cc3)c2n1` [Compound I-80, (S)-2-(2-isopropylpyridin-3-yl)-9-(1-(4-(1-methyl-4-(trifluoromethyl)-1H-imidazol-2-yl)phenyl)ethyl)-7,9-dihydro-8H-purin-8-one], the half-maximal inhibitory concentration (IC50) is under 50 nM.

In turn, `COc1c(F)cccc1-c1ncc2[nH]c(=O)n(Cc3ccc(-n4nccn4)cc3)c2n1` [Compound I-16, 9-(4-(2H-1,2,3-triazol-2-yl)benzyl)-2-(3-fluoro-2-methoxyphenyl)-7,9-dihydro-8H-purin-8-one] yielded an IC50 of over 2000 nM. The same measure for `Cc1nc(-c2ccc(Cn3c(=O)[nH]c4cnc(-c5ccccc5C(C)C)nc43)cc2)c(C)s1` [Compound I-301, 9-(4-(2,5-dimethylthiazol-4-yl)benzyl)-2-(2-isopropylphenyl)-7,9-dihydro-8H-purin-8-one]: under 50 nM; for `Cc1c(-c2ccc(Cn3c(=O)[nH]c4cnc(-c5ccccc5C(C)C)nc43)cc2)cnn1C` [Compound I-252, 9-(4-(1,5-dimethyl-1H-pyrazol-4-yl)benzyl)-2-(2-isopropylphenyl)-7,9-dihydro-8H-purin-8-one]: 50 to 200 nM; for `CC(O)c1ccccc1-c1ncc2[nH]c(=O)n(Cc3ccc(-c4nc(C(F)(F)F)cn4C)cc3)c2n1` (stereo not shown) [Compound I-544, 2-(2-(1-Hydroxyethyl)phenyl)-9-(4-(1-methyl-4-(trifluoromethyl)-1H-imidazol-2-yl)benzyl)-7,9-dihydro-8H-purin-8-one]: 50 to 200 nM. The figure for `Cc1cccc(-c2ncc3[nH]c(=O)n(Cc4ccc(-n5cccn5)cc4)c3n2)c1C(C)C` [Compound I-91, 9-(4-(1H-pyrazol-1-yl)benzyl)-2-(2-isopropyl-3-methylphenyl)-7,9-dihydro-8H-purin-8-one] is under 50 nM. The molecule `Cn1cc(C(F)(F)F)nc1-c1ccc(Cn2c(=O)[nH]c3cnc(-c4ccccc4C(F)F)nc32)cc1` [Compound I-31, 2-(2-(difluoromethyl)phenyl)-9-(4-(1-methyl-4-(trifluoromethyl)-1H-imidazol-2-yl)benzyl)-7,9-dihydro-8H-purin-8-one] yielded an IC50 of under 50 nM. As for `CC(C)c1ccccc1-c1nc(N(C)C)c2[nH]c(=O)n(Cc3ccc(-c4nc(C(F)(F)F)cn4C)cc3)c2n1` [Compound I-533, 6-(Dimethylamino)-2-(2-isopropylphenyl)-9-(4-(1-methyl-4-(trifluoromethyl)-1H-imidazol-2-yl)benzyl)-7,9-dihydro-8H-purin-8-one], the IC50 is under 50 nM. The figure for `CCn1c(=O)n(Cc2ccc(-c3nc(C(F)(F)F)cn3C)cc2)c2nc(-c3cccnc3C(C)C)ncc21` [Compound I-507, 7-Ethyl-2-(2-isopropylpyridin-3-yl)-9-(4-(1-methyl-4-(trifluoromethyl)-1H-imidazol-2-yl)benzyl)-7,9-dihydro-8H-purin-8-one] is under 50 nM; for `Cc1cc(N2CCC2)nn1-c1ccc(Cn2c(=O)n(C)c3cnc(-c4cccnc4C(C)C)nc32)cc1` [Compound I-109, 9-(4-(3-(azetidin-1-yl)-5-methyl-1H-pyrazol-1-yl)benzyl)-2-(2-isopropylpyridin-3-yl)-7-methyl-7,9-dihydro-8H-purin-8-one] it is 50 to 200 nM; for `CC(C)c1ncccc1-c1ncc2[nH]c(=O)n(Cc3ccc(-n4nc(C(F)(F)F)cc4N4CCOCC4)cc3)c2n1` [Compound I-77, 2-(2-isopropylpyridin-3-yl)-9-(4-(5-morpholino-3-(trifluoromethyl)-1H-pyrazol-1-yl)benzyl)-7,9-dihydro-8H-purin-8-one] it is under 50 nM. The molecule `Cc1cc(C(F)F)nn1-c1ccc(Cn2c(=O)[nH]c3cnc(-c4cccnc4C(C)C)nc32)cc1` [Compound I-58, 9-(4-(3-(difluoromethyl)-5-methyl-1H-pyrazol-1-yl)benzyl)-2-(2-isopropylpyridin-3-yl)-7,9-dihydro-8H-purin-8-one] yielded a half-inhibitory concentration (IC50) of under 50 nM. The same measure for `CC(C)c1ncccc1-c1ncc2c(n1)n(Cc1ccc(-c3nc(C(F)(F)F)cn3C3CC3)cc1)c(=O)n2C` [Compound I-114, 9-(4-(1-cyclopropyl-4-(trifluoromethyl)-1H-imidazol-2-yl)benzyl)-2-(2-isopropylpyridin-3-yl)-7-methyl-7,9-dihydro-8H-purin-8-one]: under 50 nM; for `COc1ccn(-c2ccc(Cn3c(=O)[nH]c4cnc(-c5ccccc5C(C)C)nc43)cc2)n1` [Compound I-204, 2-(2-isopropylphenyl)-9-(4-(3-methoxy-1H-pyrazol-1-yl)benzyl)-7,9-dihydro-8H-purin-8-one]: under 50 nM.

Source of the values: patent US10189841B2, “Purinones as ubiquitin-specific protease 1 inhibitors” (Forma Therapeutics, Inc., priority 2015, dated 2019).
